Test results published in patent publication US12012404B2, “Pyrimidoheterocyclic compounds and application thereof” (D3 BIO (WUXI) CO., LTD., priority 2020, dated 2024).

What was measured:
[1] = Metabolic stability in hepatocytes, CD-1 mice; assay type: in vitro ADME; conditions: CD-1 mice hepatocytes
Procedure: (§1) Purpose of the assay: Metabolic stabilities of assay compounds in hepatocytes of CD-1 mice, SD rats, beagle dogs, cynomolgus monkeys, and human were assayed, respectively.
(§2) Procedure of the assay: Several 96-well sample precipitation plates were prepared and named T0, T15, T30, T60, T90, T120, TO-MC, T120-MC and blank substrates, respectively. The recovery medium and incubation medium were taken out in advance and placed in a 37° C. water bath for pre-heating. Cryopreserved hepatocytes were removed from the liquid nitrogen tank and immediately immersed in a 37° C. water bath (approximately 90 seconds). After the cryopreserved hepatocytes had thawed and loosened, they were poured into a centrifuge tube containing 40 mL of recovery medium, and the tube was gently inverted to allow the cells to be resuspended in the recovery medium. The cells were centrifuged at 100×g at room temperature for 5 min, and the supernatant was removed. The hepatocytes were resuspended in an appropriate volume of incubation medium, and the cell viability was calculated by Trypan Blue staining method. 198 μL of hepatocyte suspension (0.51×10^6 cells/mL) was added to the preheated incubation plate. For the culture medium control group, 198 μL of hepatocyte-free incubation medium was added to T0-MC and T120-MC incubation plate. All incubation plates were pre-incubated in a 37° C. incubator for 10 minutes. Then 2 μL of working solutions of the assay sample and the control compound were added, respectively, and the mixture was mixed well. The incubation plate was immediately put into the shaker in the incubator, and the reaction was initiated while starting the timer. For each time point of each compound, 2 duplicate samples were prepared. The incubation conditions were 37° C., saturated humidity, and 5% CO2. In the assay system, the final concentration of the assay sample was 1 μM, the final concentration of the control sample was 3 μM, the final concentration of hepatocytes was 0.5×10^6 cells/mL, and the final concentration of the total organic solvent was 0.96%, of which the final concentration of DMSO was 0.1%. At the end of the incubation for the corresponding time point, the incubation plate was taken out, and 25 μL of a mixture of compound and control compound with cells was added to the sample plate containing 125 μL of stop solution (200 ng/mL tolbutamide and labetalol in acetonitrile). For the Blank sample plate, 25 μL of hepatocyte-free incubation medium was added directly. After sealing, all sample plates were shaken on a shaker at 600 rpm for 10 minutes, and then centrifuged at 3220×g for 20 minutes. Supernatants of the assay sample and the control sample were diluted with ultrapure water at a ratio of 1:3. All samples were mixed well and analyzed by LC/MS/MS.

[2] = Metabolic stability in hepatocytes, human; assay type: in vitro ADME
Procedure: as §1, §2

[3] = Stability assay in whole blood, CD-1 mice; assay type: in vitro ADME; conditions: CD-1 mice whole blood, 5 μM, 37° C.
Procedure: Purpose of the assay: Stabilities of the assay compounds in whole blood of CD-1 mice, SD rats, Beagle dogs and cynomolgus monkeys were assayed, respectively.
Procedure of the assay: On the day of the assay or the day before the assay, fresh whole blood from CD-1 mice, SD rats, beagle dogs, and cynomolgus monkeys was collected using anticoagulant EDTA-K2. Prior to the start of the assay, the whole blood was mixed with PBS in 1:1 (v:v) and the mixture was preheated in a 37° C. water bath for 10-20 minutes. […] […] All samples were incubated in a 37° C. water bath. The final incubation concentration of the compound was 5 μM and the final incubation concentration of the control compound was 2 μM. At the end of incubation for each time point, the corresponding incubation plate was removed and 100 μL of ultrapure water was immediately added to the corresponding sample wells, and mixed well. 800 μL of a solution of 200 ng/mL tolbutamide and labetalol in acetonitrile was added to precipitate the protein. The sample plates were sealed and shaken well, and then centrifuged at 3220×g for 20 min. 150 μL of supernatant was taken out and analyzed by LC/MS/MS.

[4] = test system: plasma protein of CD-1 mice; test: Protein binding rate by equilibrium dialysis, CD-1 mice plasma; assay type: in vitro ADME; conditions: for Protein unbound rate: CD-1 mice plasma, 2 μM, dialysis 4 hours
Procedure: Purpose of the assay: Protein binding rate of the assay compounds in plasma of CD-1 mice, SD rats, beagle dogs, cynomolgus monkeys and human was determined by equilibrium dialysis.
Procedure of the assay: Plasma samples with a compound concentration of 2 μM were prepared using plasma of the above five species, placed in a 96-well equilibrium dialysis device, and dialyzed with phosphate buffer solution at 37±1° C. for 4 hours. Warfarin was used as the control compound in this assay. The concentrations of the assay compounds in plasma and dialysis buffer were determined by LC-MS/MS method.

[5] = test system: human pancreatic cancer Mia PaCa-2 cells; test: Pharmacodynamics in vivo in subcutaneously transplanted tumor model of Mia PaCa-2 cells; design: species or system Balb/c Nude mice; conditions: day 22 of administration
Procedure: Assay on pharmacodynamics in vivo in a subcutaneously transplanted tumor model of human pancreatic cancer Mia PaCa-2 cells in Balb/c Nude mice
Cell culture: Human pancreatic cancer Mia PaCa-2 cells (ATCC-CRL-1420) were cultured in monolayer in vitro in DMEM medium with 10% fetal calf serum and 2.5% horse serum in a 37° C., 5% carbon dioxide incubator. Cells were passaged by routine digestion with trypsin-EDTA twice a week. When the cell saturation reached 80%-90% and the cell number met the requirement, the cells were harvested, counted, and resuspended in an appropriate amount of PBS. Matrigel was added in a ratio of 1:1 to obtain a cell suspension with a cell density of 25×10^6 cells/mL.
Cell inoculation: 0.2 mL (5×10^6 cells/mouse) of Mia PaCa-2 cells (plus Matrigel, 1:1 by volume) were subcutaneously inoculated into the right back of each mouse. When the average tumor volume reached 190 mm^3, mice were randomized into groups based on tumor volume and administration was initiated according to the protocol in Table 10.
Tumor diameter was measured with vernier caliper twice a week. The calculation formula of tumor volume was: V=0.5a×b^2, where a and b represent the long and short diameters of the tumor, respectively.
The anti-tumor efficacy of compounds was evaluated by TGI (%) or relative tumor proliferation rate T/C (%). Relative tumor proliferation rate T/C (%)=TRTV/CRTV×100% (TRTV: RTV in a treatment group; CRTV: RTV in a negative control group). The relative tumor volume (RTV) was calculated according to results of tumor measurement, and the calculation formula was RTV=Vt/VO, where VO was average tumor volume measured at the time of administration by group (i.e., DO), and Vt was average tumor volume at the time of a certain measurement. For TRTV and CRTV, data on the same day were used.
TGI (%) reflected tumor growth inhibition rate. TGI (%)=[(1−(average tumor volume at the end of administration of a treatment group−average tumor volume at the beginning of administration of the treatment group))/(average tumor volume at the end of treatment of a vehicle control group−average tumor volume at the beginning of treatment of the vehicle control group)]×100%.

| CLint(liver) ([1]; 1 μM) | T1/2 ([1]; 1 μM) | CLint(liver) ([2]; 1 μM) | T1/2 ([2]; 1 μM) | Plasma protein unbound rate PPB (Unbound %) ([4]; mice, as listed in PK Table 9) | Structure (SMILES) | CLint(hep) ([1]; 1 μM) | CLint(hep) ([2]; 1 μM) | Detection of assay compound content within 120 min [3] | Protein unbound rate [4] | Average tumor volume ([5]; 10 mg/kg PO QD) | T/C ([5]; 10 mg/kg PO QD) | TGI ([5]; 10 mg/kg PO QD) | Average tumor volume ([5]; 30 mg/kg PO QD) | T/C ([5]; 30 mg/kg PO QD) | TGI ([5]; 30 mg/kg PO QD) | half-life at 1 μM ([1]; mouse, cryopreserved hepatocytes) | CLint scaled at 1 μM ([1]; mouse, cryopreserved hepatocytes, read-out: CLint(liver)) | half-life at 1 μM ([2]; cryopreserved hepatocytes) | CLint scaled at 1 μM ([2]; cryopreserved hepatocytes, read-out: CLint(liver)) |
| --- | --- | --- | --- | --- | --- | --- | --- | --- | --- | --- | --- | --- | --- | --- | --- | --- | --- | --- | --- |
| 906.0 mL/min/kg | 18.2 min | 19.3 mL/min/kg | 199.5 min | 12.0% | C=C(F)C(=O)N1CCN(c2nc(OCC3CCCN3C)nc3c2COC(c2c(F)c(N)cc(C)c2C(F)(F)F)C3)CC1CC#N.Cl (single isomer, unassigned) [Compound 8B hydrochloride] | 76.3 μL/min/10^6 | 6.9 μL/min/10^6 | 100% | 12.0 | 745.84 mm^3 | 36.99% | 66.89% | 227.15 mm^3 | 11.28% | 94.23% |  |  |  |  |
|  |  |  |  |  | C=C(F)C(=O)N1CCN(c2nc(OC[C@@]34CCCN3C[C@H](F)C4)nc3c2COC(c2c(F)c(N)cc(C)c2C(F)(F)F)C3)C[C@@H]1CC#N (some centres unmarked) [Compound 17] | 146.3 μL/min/10^6 | 13.9 μL/min/10^6 | 117% | 1.5 | 249.87 mm^3 | 12.39% | 93.06% | 124.14 mm^3 | 6.16% | 99.64% | 9.5 min | 1740 mL/min/kg | 99.5 min | 38.7 mL/min/kg |
